According to US20250298027A1, “METHOD OF EVALUATING SMALL MOLECULE DISTRIBUTION USING TELLUROPHENE ANALOGUES” (THE GOVERNING COUNCIL OF THE UNIVERSITY OF TORONTO, priority 2022, published 2025):
“And” between values parts separate entries of the source, which are not always exact repeats. Equal values may be shown once. Read-outs that look alike come from different tables or passages of the source. Each block holds one molecule with its values, some of them ahead of it.

How the values were obtained:
Jurkat cells [1] = experiment: Cell viability in Jurkat cells (WST-1); format: cell-based
Description: In Jurkat cells treated with increasing concentrations of TeCar 7b, a concentration-dependent reduction in overall cell viability was observed (Table 1). When compared to Carfilzomib, similar concentrations of 7b (Te-Car) were needed to produce a 50% reduction in Jurkat cell viability.
Jurkat cells (CRL-2899) were purchased from ATCC were maintained in Rosewell Park Memorial Institute (RPMI) media supplemented with 10% fetal bovine serum (FBS) and 1% penicillin/streptomycin in a humidified 37° C. incubator with 5% CO2 (g), and cultured as per ATCC guidelines in culture flasks purchased from Starstedt.
Jurkat cells, at a concentration of approximately 12 500 cells/mL, were seeded in a 96 well plate in complete media in dosed with increasing concentrations (0-200 nM) of Carfilzomib or 7b (100 ul final volume) and left to incubate for 44 hours. Each concentration was repeated in triplicate. 10 uL of WST-1 was then added to each well, and the plate was allowed to incubate for 2 hours before the absorbance at 440 nm was measured. Absorbance signal in 100 uL complete media+10 uL WST-1 was first subtracted from each well before plotting the absorbance signal vs log (concentration). The concentration needed to see a 50% reduction in absorbance signal was then determined using GraphPad Prism software.

Jurkat cells [2] = experiment: 7b and 8b incorporation into living Jurkat cells with or without Carfilzomib (CyTOF); format: cell-based; settings: 1 hour
Description: Co-dosing of cells with Te-Car 7b and Car lead to an approximately 50% reduction in Te labelling confirming the on-target labelling of modified compound (FIG. 10). This evidence supports that TeCar can be used to monitor Carfilzomib's target engagement in a more complex and disease-relevant samples.
Jurkat cells were seeded in […] plastic culture flasks at a concentration of approximately 5 million cells/mL for 24 hours prior to dosing. The cells were dosed with either Carfilzomib, 7b, or 8b at a final concentration of 500 nM, or a combination of Carfilzomib/7b (500 nM each), Carfilzomib/8b (500 nM each), or a DMSO control (final percentage of 0.5%) in complete media for 1 hour.
The media was then immediately removed, and the cells resuspended in 3 mL of cold phosphate-buffered saline (PBS), before being aliquoted into three 1 mL aliquots per each dosing regime. The samples were then prepped for CYTOF® analysis.
Briefly, each sample aliquot was washed three times with cold PBS (1 mL×3). The cells were then fixed, permeabilized, and stained with Cell-ID™ Intercalator-Ir stain in PBS (1 mL) for 1 hour at rt. […]
CYTOF® analysis was conducted the following day. […] The average ^128Te signal in the population of cells (events positive for 191 Ir and 193Ir signal) for each sample was determined.

Top2 [3] = molecular target: T1, Top2 (Homo sapiens, UniProt P11388); experiment: Top2 decatenation assay using kinetoplast DNA; format: biochemical; settings: 5, 10, 25 and 50 μM
T1 construct: purchased TopoGEN, Inc
Description: The relative Top2 inhibitory activity of 1 in comparison to teniposide was evaluated in decatenation assays using kinetoplast DNA (kDNA). Decatenation of the DNA, catalyzed by Top2, can be readily resolved using agarose gel electrophoresis.
Top2 decatenation assay: The assay was performed according to manufacturer's protocol (TopoGEN, Inc.). The total reaction volume was 20 μL of assay buffer (120 mM KCl, 50 mM Tris-HCl, 10 mM MgCl2, 0.5 mM DTT, 0.5 mM ATP, and 30 μg/mL BSA) and 120 ng of kinetoplast DNA (kDNA) substrate. One unit of TopoII enzyme in was added to reaction microfuge tubes in the presence or absence of inhibitor. The reaction was incubated for 30 min at 37° C. The reaction was stopped by addition of 5 μL of stop buffer (5% sarkosyl, 0.025% bromophenolblue, and 50% glycerol). The samples were then analyzed using electrophoresis using a 1% agarose gel in Tris-borate-EDTA buffer with 0.5 pg/mL ethidium bromide stain. Gels were imaged using Syngene G: Box Gel Imager (Chemi-XT4 GENESys software with preset for ethidium bromide stained agarose gels). Band intensities were analyzed using ImageJ software.

HL-60 cells = experiment: WST-1 viability assay in HL-60 cells; format: cell-based; settings: Homo sapiens, HL-60; 24 hours, maximum concentration of 50 μM; read-out: inhibition of proliferation of HL-60 cells
Description: The toxicity of 1 was compared to teniposide in HL-60 cells after incubation for 24 hours using a WST-1 viability assay.
WST-1 metabolic cytotoxicity assay: HL-60 cells (ATCC® CCL-240TM) were maintained in DMEM media with 2 mM L-glutamine (Gibco) supplemented with 20% calf serum and 100× dilution of penicillin-streptomycin solution (Gibco). Cells were maintained at 37° C. in a humidified atmosphere of 5% CO2 in air. HL-60 cells (100 pL) were seeded into a 96 well clear at a density of 5×10^5 cells/mL. Cells were treated with either DMSO or appropriate inhibitor from DMSO stocks. […] Cells were incubated for 24 h at 37° C. under a 5% CO2 atmosphere. WST-1 reagent (10 pL; Roche Diagnostics, 05015944001) was added to each well and gently mixed by pipetting. Cells were incubated for 1 h at 37° C. under 5% CO2 atmosphere. UV-vis absorbance measurements of each well at 450 nm was recorded using a TECAN Safire 2 plate reader. Data was background corrected against wells that contained cell growth media without cells and WST-1. Experiment was performed in triplicate.

PANC-1 cells = experiment: alamarBlue viability assay in PANC-1 cells; format: cell-based, Human; settings: maximum dose of 25 μM, 72 hours exposure
Description: Similarly, PANC1 cells were characterized for later in vivo experiments. Using an alamarBlue viability assay and a proliferative assay, PANC-1 cells were incubated with 1 or teniposide.
AlamarBlue assay: PANC-1 cells were seeded into black, clear-bottom 96-well assay plates (Corning; CLS3603) and incubated for 24 hours. The medium was replaced with […] of teniposide or compound 1. After 72 hours exposure to drug, alamarBlue (Thermo Fisher Scientific; DAL1100) cell viability reagent was added and incubated for 4 hours at 37° C. Fluorescence intensity was measured using an excitation wavelength of 560 nm and an emission of 590 nm. Cell viability was calculated by normalizing to an untreated control.

pH2AX^Ser139 [4] = experiment: pH2AX Western blotting in PANC-1 cells; format: cell-based, Human; settings: 1 μM, 24 and 48 hours
Description: Next, the ability of 1 to induce DSBs—the dominant type of DNA damage resulting from Top2 inhibition was investigated. In response to DSBs, a cascade of DNA repair mechanisms are triggered, including-phosphorylation of the histone variant H2AX at Ser139. Thus, the level of pH2AX^Ser139 serves as a reliable marker for Top2-linked DSBs. Western blotting was used to measure pH2AX^Ser139 in PANC-1 cells treated with 1 μM of either 1 or teniposide for 24 and 48 hours.
pH2AX Blotting: PANC-1 cells (0.5×10^6) cells were seeded in 60 mm plastic petri dishes (Corning Inc. NY) and incubated for 18 h. The spent medium is removed and replaced with fresh medium containing drug ([…]) and incubated for either 24 or 48h. Control cells were treated with DMSO only. The cells were then lysed with RIPA buffer (25 mM Tris·HCl PH 7.6, 150 mM NaCl, 1% NP-40, 1% sodium deoxycholate, 0.1% SDS) (ThermoFisher Scientific) containing Halt Protease Inhibitor Cocktail (Cat. No. 78410) and Halt Phosphatase Inhibitor Cocktail (Cat. No. 78420) as per manufacturer's protocol. […] Antibodies (Abcam, Cambridge, MA) targeting the following proteins were used H2AX (S139) (ab11174, polyclonal) and β-tubulin (ab6046, polyclonal).

pH2AX^Ser139 [5] = experiment: pH2AX immunohistochemistry of PANC-1 xenograft tumour sections; format: in vivo, mice; settings: 20 mg/kg IP, 2 hours
Description: PANC-1 xenograft-bearing mice were injected with either teniposide or the Te-teniposide analogue 1 IP. A dose of 20 mg/kg was selected based on literature reports detailing teniposide drug delivery strategies. After 2 hours, mice were sacrificed and tissues of interest were harvested, formalin fixed, and paraffin embedded. Tissue sections (5 um) were cut and mounted onto microscopy slides. The expression of pH2AX^Ser139 levels were first assessed by immunohistochemistry. Serial sections derived from PANC-1 xenograft tumours were stained with primary antibody and subsequently HRP-conjugated secondary antibody for standard brown staining. DSBs are indicated by large, discrete pH2AX^Ser139 foci. Representative images of immunostained slides show increased pH2AX^Ser139 levels in treated mice relative to saline injected control with clear, punctate staining (FIG. 7).

Top2 [6] = settings: fluorescence anisotropy and DNA relaxation gel assays; read-out: IC50 of teniposide in literature; cited from earlier work
[7] = mice, depending on route of administration and dosing regimen; cited from earlier work

T1 sequence (P11388 whole entry): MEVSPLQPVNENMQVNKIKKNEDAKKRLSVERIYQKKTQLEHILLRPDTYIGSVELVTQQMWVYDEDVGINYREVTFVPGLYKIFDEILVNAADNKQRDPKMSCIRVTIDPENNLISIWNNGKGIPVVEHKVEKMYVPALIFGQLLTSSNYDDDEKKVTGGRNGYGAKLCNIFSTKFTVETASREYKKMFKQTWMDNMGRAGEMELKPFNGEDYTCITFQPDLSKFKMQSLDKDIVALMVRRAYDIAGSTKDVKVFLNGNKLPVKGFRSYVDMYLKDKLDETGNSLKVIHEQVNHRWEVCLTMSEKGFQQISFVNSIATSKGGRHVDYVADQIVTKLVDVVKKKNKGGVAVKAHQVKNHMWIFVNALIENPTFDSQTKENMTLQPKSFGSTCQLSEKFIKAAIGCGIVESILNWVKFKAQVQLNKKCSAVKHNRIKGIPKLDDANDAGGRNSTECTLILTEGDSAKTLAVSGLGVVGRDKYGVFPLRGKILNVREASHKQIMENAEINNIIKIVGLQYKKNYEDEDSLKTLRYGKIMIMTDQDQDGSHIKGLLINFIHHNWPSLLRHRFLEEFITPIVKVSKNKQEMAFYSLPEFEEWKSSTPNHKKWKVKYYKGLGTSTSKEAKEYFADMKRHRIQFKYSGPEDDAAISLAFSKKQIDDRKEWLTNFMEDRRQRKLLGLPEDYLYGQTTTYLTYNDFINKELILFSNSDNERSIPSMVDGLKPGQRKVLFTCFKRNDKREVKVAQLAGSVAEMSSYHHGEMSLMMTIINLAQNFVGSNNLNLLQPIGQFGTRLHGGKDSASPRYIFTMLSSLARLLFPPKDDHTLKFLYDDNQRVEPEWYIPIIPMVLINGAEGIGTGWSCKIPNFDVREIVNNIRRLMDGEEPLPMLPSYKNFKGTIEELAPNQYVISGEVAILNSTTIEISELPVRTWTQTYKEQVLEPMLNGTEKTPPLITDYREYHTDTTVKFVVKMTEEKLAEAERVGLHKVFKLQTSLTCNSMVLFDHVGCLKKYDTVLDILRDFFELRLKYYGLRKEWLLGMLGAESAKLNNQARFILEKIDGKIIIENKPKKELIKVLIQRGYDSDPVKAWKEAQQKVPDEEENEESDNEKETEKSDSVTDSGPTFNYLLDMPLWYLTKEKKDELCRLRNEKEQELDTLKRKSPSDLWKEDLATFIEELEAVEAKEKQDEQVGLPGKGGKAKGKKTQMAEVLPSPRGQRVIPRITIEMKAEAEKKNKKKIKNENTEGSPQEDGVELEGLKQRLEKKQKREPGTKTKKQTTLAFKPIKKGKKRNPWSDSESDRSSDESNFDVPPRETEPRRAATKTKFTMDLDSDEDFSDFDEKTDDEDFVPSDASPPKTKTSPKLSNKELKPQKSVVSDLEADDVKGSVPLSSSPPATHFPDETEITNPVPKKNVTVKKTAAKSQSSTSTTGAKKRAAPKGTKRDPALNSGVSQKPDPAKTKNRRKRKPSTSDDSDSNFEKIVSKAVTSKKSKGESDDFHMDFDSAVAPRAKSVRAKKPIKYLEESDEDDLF

SMILES: CC(C)C[C@H](NC(=O)[C@H](CCc1ccccc1)NC(=O)CN1CCOCC1)C(=O)N[C@@H](Cc1ccc[te]1)C(=O)N[C@@H](CC(C)C)C(=O)[C@@]1(C)CO1 (single isomer, unassigned) [7b]
- IC50 (Jurkat cells [1]; Homo sapiens, Jurkat, 44 h, read-out: IC50, viability of Jurkat cells, Average +/− SD, 44 hours, WST-1, average of 3 biological replicates): 9.71 nM
- IC50 (Jurkat cells [1]; Homo sapiens, Jurkat, 44 h, read-out: IC50, viability of Jurkat cells, single biological replicate, 44 hours, WST-1, Biol. Rep 1-3): 9.48 nM
- IC50 (Jurkat cells [1]; read-out: IC50, viability of Jurkat cells, single biological replicate, 44 hours, WST-1, Biol. Rep 1-3): 9.87 nM and 9.78 nM
- reduction in Te labelling on co-dosing with Carfilzomib (Jurkat cells [2]; 7b and Carfilzomib 500 nM each, ^128Te): approximately 50%
- accumulation of tellurium within the cells (Jurkat cells [2]; mass cytometry): activity dependent accumulation

- IC50 (Jurkat cells [1]; 44 hours, WST-1, Biol. Rep 1-3, read-out: IC50, viability of Jurkat cells, single biological replicate): 9.99 nM and 9.41 nM
- IC50 (Jurkat cells [1]; Homo sapiens, Jurkat, 44 h, WST-1, Biol. Rep 1-3, read-out: IC50, viability of Jurkat cells, single biological replicate): 9.13 nM
- IC50 (Jurkat cells [1]; Homo sapiens, Jurkat, 44 h, WST-1, average of 3 biological replicates, read-out: IC50, viability of Jurkat cells, Average +/− SD): 9.51 nM
SMILES: CC(C)C[C@H](NC(=O)[C@H](CCc1ccccc1)NC(=O)CN1CCOCC1)C(=O)N[C@@H](Cc1ccccc1)C(=O)N[C@@H](CC(C)C)C(=O)[C@@]1(C)CO1 [Carfilzomib, reference compound]

- inhibition of the decatenation reaction (Top2 [3]): dose-dependent inhibition
SMILES: COc1cc([C@@H]2c3cc4c(cc3[C@@H](O[C@@H]3O[C@@H]5CO[C@@H](c6cccs6)O[C@H]5[C@H](O)[C@H]3O)[C@H]3COC(=O)[C@H]23)OCO4)cc(OC)c1O [teniposide, reference compound]
- inhibition at 50 µM (HL-60 cells): ≤ 60%
- loss of cell viability in PANC-1 cells (PANC-1 cells): almost complete loss of cell viability
- levels of pH2AX^Ser139 relative to DMSO-treated control (pH2AX^Ser139 [4]): Increased levels
- pH2AX^Ser139 levels in tumour sections relative to saline injected control (pH2AX^Ser139 [5]): increased
- IC50 (Top2 [6]): 1300 to 9800 nM
- half-life [7]: 1 to 5 h
